Test results reported in US10046046B2, “Amino sphingoglycolipid analogues” (Victoria Link Limited, priority 2014, dated 2018).
“Also recorded” adds a separate entry of the source. Square brackets hold non-standard residues; d marks the D form. Peptide text beside a SMILES is read from it. * marks the point of attachment. ξ: configuration not given here. X1 = CCCCCCCCCCCCCCCCCCCCCCCCCC(=O)N[C@@H](CO[C@H]1OC(CNC(=O)OCOC(=O)CC/C(C)=N/OCC(=O)*)[C@H](O)[C@H](O)C1O)[C@H](O)[C@H](O)CCCCCCCCCCCCCC; ξF = NC(Cc1ccccc1)C(=O)O

Experiments:
CD11c+ dendritic cells = assay: CD86 expression on splenic dendritic cells; format: in vivo, C57BL/6 mice; details: 0.571 nmol intravenously, spleens removed 20 h later, n=3, FIG. 3
Experimental: Groups of C57BL/6 mice (n=3) are injected intravenously with 0.571 nmol of the indicated compounds and then the spleens removed 20 h later for the analysis of CD86 expression on CD11c^+ dendritic cells by antibody labelling and flow cytometry. Mean fluorescence index (MFI)±SEM are presented. *P<0.05, *P<0.01, ***P<0.001
Antibody staining and flow cytometry is used to examine the expression of maturation markers on dendritic cells in the spleen following injection of compounds of the invention (0.23 nmol). Splenocyte preparations are prepared by gentle teasing of splenic tissue through gauze in Iscove's Modified Dulbecco's Medium with 2 mM glutamine, 1% penicillin-streptomycin, 5×10^-5 M 2-mercapto-ethanol and 5% fetal bovine serum (all Invitrogen, Auckland, New Zealand), followed by lysis of red blood cells with RBC lysis buffer (Puregene, Gentra Systems, Minneapolis, Minn., USA). Antibody staining is performed in PBS 2% fetal bovine serum and 0.01% sodium azide. The anti-FcgRII monoclonal antibody 2.4G2 is used at […] to inhibit non-specific staining. Monoclonal antibodies (all BD Biosciences Pharmingen, San Jose, Calif., USA) are used to examine expression of the maturation markers CD40, CD80 and CD86 on CD11c+ dendritic cells.

[1] = test system: SIINFEKL-specific T cells; assay: Peptide-specific T cell proliferation in vivo (OT-1 transfer); parameters: species or system C57BL/6 mice; details: intravenous vaccination one day after transfer of 10,000 OT-1 cells, equivalent molar dose of SIINFEKL, blood after seven days, FIG. 2
Experimental: The compounds are injected to give the equivalent molar dose of SIINFEKL (SEQ ID NO: 262) peptide in each case. To increase sensitivity of the assay, all mice are initially donated a cohort of 10,000 SIINFEKL-specific T cells from a transgenic mouse encoding a T cell receptor for this antigen (OT-1 mice) by intravenous injection of the cells one day before the vaccines are administered. […] It is therefore possible to enumerate SIINFEKL-specific T cells in blood by flow cytometry using antibodies for CD45.1 together with antibodies for the transgenic T cell receptor (Vα2). Control animals (naïve) are injected with the diluent phosphate-buffered saline (PBS). […] Each dot represents a different animal; mean per treatment group±SEM are presented. *P<0.05, *P<0.01, ***P<0.001
Pooled lymph node cell suspensions are prepared from animals of a cross between OT-1 mice, which express a transgenic T cell receptor (TCR) specific for the ovalbumin epitope SIINFEKL (SEQ ID NO: 262)-in the context of H-2K^b molecules, and B6.SJL-Ptprc^a Pepc^b/BoyJ mice, which are congenic with C57BL/6 mice for the CD45.1^+ marker. The samples are enriched for CD8^+ cells using antibody coated magnetic beads (Miltenyi), and then transferred into C57BL/6 mice (1×10^4 per mouse). Groups of recipient animals (n=5) are immunized with compounds of the invention one day later. […]

[2] = test system: NKT cell activity (CD86 on B cells in the peripheral blood); assay: CD86 expression on peripheral blood B cells as readout of NKT cell activity; format: in vivo, C57BL/6 mice; details: 0.23 nmol intravenously, blood collected 20 h later, n=3, FIG. 1
Experimental: Groups of C57BL/6 mice (n=3) are injected intravenously with 0.23 nmol of the indicated glycolipid compounds and then the blood samples collected 20 h later for the analysis of CD86 expression on CD45 (B220)+B cells by antibody labelling and flow cytometry. Mean fluorescence index (MFI)±SEM are presented, *P<0.05, *P<0.01, ***P<0.001.
Each compound of the invention is supplied as formulated product (see example 3), and diluted in phosphate-buffered saline (PBS) for injection (0.23 nmol/mouse) by intravenous injection into the lateral tail vein. In humans the expected therapeutic dose lies in the 50-4800 (μg/m^2) range (Giaccone, Punt et al. 2002). Note, 0.23 nmol in a mouse is a human equivalent dose of 30 μg/m^2 for α-GalCer.
All antibody labelling is performed on ice in FACS buffer (PBS supplemented with 1% FCS, 0.05% sodium azide, and 2 mM EDTA). Non-specific FcR-mediated antibody staining is blocked by incubation for 10 min with anti-CD16/32 Ab (24G2, prepared in-house from hybridoma supernatant). Flow cytometry is performed on a BD Biosciences FACSCalibur or BD LSRII SORP flow cytometer with data analysis using FlowJo software (Tree Star, Inc., OR, USA).
Antibody staining and flow cytometry are used to examine the expression of the maturation markers CD86 on peripheral blood B cells following injection of compounds of the invention. […]

[3] = Ebensen, Link et al. 2007; cited from earlier work
mouse NKT cells = details: Kawano, Cui et al. 1997; cited from earlier work
human NKT cells = details: Kawano, Cui et al. 1997; cited from earlier work
B16.OVA melanoma cells = assay: Anti-tumour activity against subcutaneous B16.OVA tumours; format: in vivo, C57BL/6 mice; details: 0.571 nmol intravenously five days after tumour challenge, n=5, FIG. 5
Experimental: Progression of subcutaneous B16.OVA tumours is monitored in animals treated five days after tumour challenge with intravenous CI-017 or CN159 peptide and α-GalCer or with PBS. The mean tumour sizes per group (n=5)±SEM are shown.
Groups of C57BL/6 mice (n=5) receive a subcutaneous injection into the flank of 1×10^5 B16.OVA melanoma cells, which express a cDNA encoding the chicken ovalbumin (OVA) sequence. The different groups are treated five days later by intravenous injection of one of the following; CI-017 (0.571 nmol), peptide CN159 (0.571 nmol) mixed with α-GalCer (0.571 nmol), or PBS. Mice are monitored for tumour growth every 3-4 days, and tumour size for each group calculated as the mean of the products of bisecting diameters (±SEM). Measurements are terminated for each group when the first animal develops a tumour exceeding 200 mm^2.

[4] = test system: syngeneic splenocytes loaded ex vivo with SIINFEKL; assay: Peptide-specific T cell-mediated cytotoxicity in vivo (VITAL assay); parameters: species or system mice; details: 0.571 nmol intravenously, targets injected 7 days after vaccination, 5 animals per group, FIG. 4
Experimental: The compounds are injected to give the equivalent molar dose of SIINFEKL (SEQ ID NO: 262) peptide, in each case of 0.571 nmol. Flow cytometry is used to assess the killing of target cells comprised of syngeneic splenocytes loaded ex vivo with 5 μM SIINFEKL (SEQ ID NO: 262) injected intravenously 7 days after vaccination. To discriminate the targets from host tissue, the injected cells are labelled with the fluorescent dye carboxyfluorescein succinimidyl ester (CFSE). A cohort syngeneic splenocytes (without peptide) labelled with the fluorescent dye cell tracker orange are also injected to serve as controls. Killing is defined as the percentage of peptide-loaded targets killed relative to control cells. Each treatment group contained 5 animals. Control animals are injected with the diluent phosphate-buffered saline (PBS). […] Mean percentage of killing per group±SEM are shown. ***p<0.001
The cytotoxic capacity of induced CD8^+ T cell responses is measured by VITAL assay (Hermans, Silk et al. 2004). […] Specific lysis of the peptide-loaded targets is monitored by flow cytometry of blood or spleen samples 24 h later. Mean percent survival of peptide-pulsed (CFSE+) targets is calculated relative to that of the control population (CTO+), and cytotoxic activity is expressed as percent specific lysis (100−mean percent survival of peptide-pulsed targets).

CCCCCCCCCCCCCCCCCCCCCCCCCC(=O)N[C@@H](CO[C@H]1OC(CN)[C@H](O)C(O)C1O)[C@H](O)[C@H](O)CCCCCCCCCCCCCC (some centres unmarked) [CN168]
CD86 expression on CD11c+ dendritic cells in spleen (mean fluorescence index) (CD11c+ dendritic cells): potently activated dendritic cells

CCCCCCCCCCCCCCCCCCCCCCCCCC(=O)N[C@@H](CO[C@H]1OC(CNC(=O)OCOC(=O)CC/C(C)=N/OCC(=O)N[C@@H](Cc2ccccc2)C(=O)NC(Cc2ccccc2)C(=O)N[C@@H](CCCNC(=N)N)C(=O)N[C@@H](CCCCN)C(=O)N[C@@H](CO)C(=O)N[C@H](C(=O)N[C@H](C(=O)N[C@@H](CC(N)=O)C(=O)N[C@@H](Cc2ccccc2)C(=O)N[C@@H](CCC(=O)O)C(=O)N[C@@H](CCCCN)C(=O)N[C@@H](CC(C)C)C(=O)O)[C@@H](C)CC)[C@@H](C)CC)[C@H](O)[C@H](O)C1O)[C@H](O)[C@H](O)CCCCCCCCCCCCCC (stereo partly drawn) [CN169, (2S,3S,4R)-1-(6-Deoxy-6-(4-((2-(FFRKSIINFEKL)-2-(oxo)ethoxyimino)pentanoyloxy)methoxycarbonylamino)-α-D-galactopyranosyloxy)-2-hexacosanoylamino-3,4-octadecandiol] (X1-F[ξF]RKSIINFEKL-OH)
SIINFEKL-specific T cells (Vα2+ CD45.1+) in blood [1]: increased antigen-specific T cell response; also recorded: larger population of peptide-specific T cells; also recorded: larger population of SIINFEKL-specific T cells
CD86 expression on CD45 (B220)+ B cells in peripheral blood (mean fluorescence index) [2]: potently activate B cells

CCCCCCCCCCCCCCCCCCCCCCCCCC(=O)N[C@@H](CO[C@H]1O[C@H](CO)[C@H](O)[C@H](O)[C@H]1O)[C@H](O)[C@H](O)CCCCCCCCCCCCCC [α-GalCer, α-Galactosylceramide]
Solubility [3]: poor solubility
Activation of mouse NKT cells (mouse NKT cells): potently activates
Activation of human NKT cells (human NKT cells): potently activates

(2S,3S,4R)-1-(6-Deoxy-6-(4-β-(FFRKSIINFEKL)-3-oxopropyl)-1H-1,2,3-triazol-1-yl)hexanoyl)-(N-Val-Cit-4-aminobenzyloxycarbonylamino)-1-(α-D-galactopyranosyloxy))-2-hexacosanoylamino-3,4-octadecandiol [CI-017]
Anti-tumour activity (mean tumour size) (B16.OVA melanoma cells): superior anti-tumour activity
SIINFEKL-specific cytotoxicity (percentage of peptide-loaded targets killed relative to control cells) [4]: greater SIINFEKL (SEQ ID NO: 262)-specific cytotoxicity
